Reference: patent publication US20240165164A1, “STEM CELLS FOR USE IN REDUCING THE IMMUNE RESPONSE FOLLOWING ORGAN TRANSPLANTATION” (Amniotics AB, priority 2021, published 2024)

Experiments:
[1] = test system: human Peripheral Blood Mononuclear Cells (PBMCs); assay: PBMC co-culture: cell composition after 24 hours of activation (FACS analysis)
Procedure: (§1) Freshly isolated human PBMCs, pooled from three donors, were activated with anti-CD3/anti-CD28 at 10 μg/ml and 5 μg/ml respectively in presence of MSCs ex vivo for 24 or 72 hours. Following activation, cells were analysed for effects on cellular composition after 24 hours and for effects on cellular composition and cell proliferation using CFSE after 72 hours. In addition, supernatants collected after 24 hours of activation were analysed for cytokine levels using Luminex.
(§2) Peripheral Blood Mononuclear Cells (PBMCs) were isolated from leucocyte concentrate from three different donors (acquired from Blodcentralen, Lunds Universitetssjukhus, Lund, Sweden) through gradient centrifugation at 400×g for 40 minutes using Ficoll. Red blood cells (RBCs) were lysed using BD Pharmlyse buffer 10× diluted in milliQ water for 3 minutes at room temperature (RT). Cells were washed and the isolated PBMCs were pooled. Cell concentration was determined using a Scepter cell counter (Millipore Merck, MA. USA). Cells were diluted to 1×10^7 cells/ml in PBS. Pooled PBMCs were split into 2 different tubes. Cells in tube 1 was stained with CFSE at 5 µM for 5 minutes (dark, RT). CFSE stained cells were washed with an equal volume of FBS to stop the reaction and washed again with PBS. Cells in tube two was left in PBS.
(§3) MSCs (donor 1, donor 2, donor 3, and AD-MSC control cells) were provided in 8 different tubes, two for each cell type (in different medias (M3 and M4). All cells (PBMCs and MSCs) were diluted in the two different cell culture media (M3 and M4) to a final concentration of 2*10^6 cells/ml. Media was supplemented with anti-CD28 at 5 μg/ml. Cells were added to anti-CD3 (1 μg/well, 100 μl/well) coated U bottom cell culture plates according to the layout below, 200 μl/well in different PBMC:MSC ratios (1:10, 1:5, 1:2.5, 1:0 and 0:1) with a total amount of cells at 4*10^5 cells/well.
(§4) When plating controls, cells were spun down and diluted in M3 or M4 at 4*10^6 cells/ml, with a total amount of cells at 4*10^5 cells/well. 100 μl PBMCs were added per well. […] Medium was added to unstimulated control wells (700 μl/well). Cells were incubated for 24 or 72 hours at 37° C., 5% CO2. See also FIG. 28.
Following 24 hours of incubation, cells in FACS/Luminex plates were stained with antibodies detecting CD73, CD4, CD8, CD80, CD206, CD163 and PD-1 in staining buffer (PBS supplemented with 1% BSA). Briefly, cells were transferred to V bottom plates and centrifuged at 360×g for 2 min. Supernatant was transferred to a storage plate and put in −20° C. until analysis using Luminex. Cells were washed in PBS, centrifuged at 360×g for 2 min at 4° C. Supernatant was flicked off and antibodies against surface markers were added. Cells were incubated at +4° C. for 20 minutes (dark). After incubation, cells were washed 1× in PBS, centrifuged at 360×g for 2 min at 4° C. Cells were resuspended in PBS and acquired using the Attune Nxt flow cytometer. Compensation was performed using beads—AbC Total Compensation capture beads and negative beads. Since compensation was done using beads, FSC and SSC were changed before analysing samples and adjusted to cells. Lasers were not changed after compensation. 150 μl was analysed from each sample.

[2] = test system: human Peripheral Blood Mononuclear Cells (PBMCs); assay: PBMC co-culture: proliferation and cell composition after 72 hours of activation (FACS analysis after CFSE labeling)
Procedure: as §1, §2, §3, §4
After 72 hours of incubation, CFSE stained cells were stained with CD4, CD8, CD80, CD206 and CD163 in staining buffer. Briefly, cells were transferred to V bottom plates, centrifuged at 360×g for 2 min. Cells were washed in PBS, centrifuged at 360×g for 2 min at 4° C. Supernatant was flicked off and surface markers were added. Cells were incubated at +4° C. for 20 minutes. After incubation, cells were washed 1× in PBS, centrifuged at 360×g for 2 min at 4° C. Cells were resuspended in PBS and acquired using the Attune Nxt flow cytometer. Compensation was performed using beads—AbC Total Compensation capture beads and negative beads for surface markers. For CFSE compensation, newly CFSE stained cells were used. Since compensation was done using both beads and cells, FSC and SSC were changed and adjusted to beads or cells. Lasers were not changed after compensation.
Graphs were performed using Prism 8 for Mac OS X (GraphPad Software, San Diego, CA, USA). Results are presented as mean values±SEM, if not otherwise stated. Dot plots were acquired from analysis using FlowJo v10.6.1 for Mac (BD, New Jersey, USA). The inhibitory effect of MSCs on PBMC proliferation was calculated according to the two formulas below: […]

[3] = test system: human Peripheral Blood Mononuclear Cells (PBMCs); assay: PBMC co-culture: cytokine analysis after 24 hours of activation (Luminex); type: cell-based
Procedure: 100 μl PBMCs were added per well. […] See also FIG. 28.
Supernatant (24 hours incubation) was analysed for cytokines using the 12-plex LXSAHM-12 Luminex kit. All reagents, standard and samples were prepared at room temperature and according to manufacturer's instruction. Briefly, 50 μl of standard or sample was added to wells. Microparticles were added to samples and standard and samples were incubated for 2 hours at room temperature on a horizontal orbital shaker (800 rpm). Plate was washed 3× in washing buffer using a magnetic plate. Biotin-antibody was added and incubated dark for 1 hour at room temperature on a horizontal orbital shaker (800 rpm). Plate was washed 3× in washing buffer using a magnetic plate. Streptavidin-PE was added to each well and incubated dark at room temperature on a horizontal orbital shaker (800 rpm) for 30 minutes. Plate was washed 3× in washing buffer using a magnetic plate. Microparticles were resuspended in 100 μl washing buffer, incubated for 2 minutes on a horizontal orbital shaker (800 rpm). Samples were analysed on a Bio-Rad Luminex analyzer.

[4] = CsA 10 μg/ml, Prednisolone 125 nM
[5] = stimulated PBMCs, media 3, MSCs at all ratios, CsA 10 μg/ml, Prednisolone 125 nM

## C[C@]12C=CC(=O)C=C1CC[C@@H]1[C@@H]2[C@@H](O)C[C@@]2(C)[C@H]1CC[C@]2(O)C(=O)CO [Prednisolone]
[1]; [4]
  M2 macrophage expression: no effect
  T cell activation: only slightly inhibits
  expression level of M1 macrophages: no effect
[1]; Prednisolone 125 nM
  macrophage cell composition: did not have an effect
[1]; aCD3/aCD28 activated PBMCs, media 3, unsorted MSCs at PBMC:MSC 1:2.5, 1:5, 1:10, Prednisolone 125 nM, vs control
  T helper cells (% CD4+ lymphocytes or MFI of CD4+ lymphocytes): higher levels
[2]; 72 hours
  M1 expression levels: no effect
  M1 proliferation (CFSE): No effect
  M2 expression levels: no effect
  M2 proliferation (CFSE): No effect
[2]; 72 hours of incubation, unsorted MSCs co-culture, CsA 10 μg/ml, Prednisolone 125 nM
  T helper cells (% CD4+ among T cells): no effect
[3]; 12-plex cytokines not listed as inhibited
  the other analysed cytokines, levels in supernatant: No inhibitory effect
[3]; [4]
  IL-6 levels in supernatant: inhibits
[3]; [5]
  IL12/IL23p40 levels in supernatant: inhibits
  TNF-α levels in supernatant: inhibits
[3]; stimulated PBMCs, media 3, PBMC:MSC 1:2.5, 1:5, 1:10, CsA 10 μg/ml, Prednisolone 125 nM
  HGF levels in supernatant: inhibits
